# Assay results: US20200270225A1, “Chiral Diacylhydrazine Ligands for Modulating the Expression of Exogenous Genes via an Ecdysone Receptor Complex” (Intrexon Corporation, priority 2007, published 2020)
# Where two headings read alike, the source gives them in different places.
# Columns and labels:
# [1] = target: T1, [V390I/Y410E/E274V]-CfEcR (Choristoneura fumiferana, UniProt O77240); assay type: cell-based; settings: 3T3 Cells; for RMFI (relative maximum fold induction): relative to GS-E ligand
# T1 construct: assay construct b835
# Description: (§1) Cellular gene switch assays were performed by transiently transfecting the following constructs in mouse embryonic fibroblast cells (NIH3T3). The wild-type D, E and F domains from Choristoneura fumiferana EcR or its V390I/Y410E/E274V mutant were fused to GAL4-DBD and placed under the control of the CMV promoter in the pBIND vector (Promega Corporation, Madison, Wis., USA). The DEF domains of EcRs shown were amplified using primers designed based on 20-25 nt sequences at the 5′ and 3′ ends. Restriction enzyme sites EcoR I/BamH I and Xba I were added to 5′ and 3′ primers respectively. The PCR products were digested with appropriate restriction enzymes and cloned into pBIND vector. The EcR LBDs cloned into pBIND vector were verified by sequencing. A chimeric RXR from Homo sapiens RXRP and Locusta migratoria RXR, fused to VP16-AD and placed under the control of an SV40e promoter, was constructed as previously described (Kumar P & Katakam A in Gene Transfer, Friedmann T and Rossi J, eds, pp. 643-651 (2007), Cold Spring Harbor Laboratory Press, Cold Spring Harbor, N.Y.). The inducible luciferase reporter plasmid pFRLuc (Stratagene Cloning Systems, La Jolla, Calif., USA), contains five copies of the GAL4 response element and a synthetic minimal promoter.
# (§2) NIH3T3 cells were maintained at 37′C and 5% CO2 in Dulbecco's modified Eagle's medium (DMEM) supplemented with 10% bovine calf serum, both obtained from Mediatech Inc., Manassas, Va. Cells were planted in a 96-well plate at a density of 2,500 cells/well in 50 μL of growth medium. The following day cells were first treated with 35 μL of serum-free DMEM containing dimethyl sulfoxide (DMSO; control) or a DMSO solution containing ligand. Cells were then transfected with 15 μl of serum-free DMEM containing 0.04 μg of EcR construct, 0.04 ug of RXR construct, and 0.16 μg of luciferase reporter construct per well, using SuperFect™ transfection reagent (Qiagen Inc., Valencia, Calif., USA) according to the manufacturer's instructions. Ligands were tested at 8 doses from 0.01-33 μM and the final DMSO concentration was 0.33% in both control and treatment wells. After a 48 hour post-treatment and transfection incubation, the cells were assayed for luciferase activity using the Bright-Glo™ Luciferase Assay System (Promega Corporation, Madison, Wis., USA) following the manufacturer's instructions. EC50 values were measured minimally in duplicate.
# (§3) Luciferase reporter gene expression was measured 48 h after cell treatment using Bright-Glo™ Luciferase Assay System from Promega (E2650). Luminescence was detected at room temperature using a Dynex MLX microtiter plate luminometer.
# (§4) Each assay was conducted in two separate wells, and the two values were averaged. Fold inductions were calculated by dividing relative light units (“RLU”) in ligand treated cells with RLU in DMSO treated cells. EC50s were calculated from dose response data using a three-parameter logistic model. Relative Max FI was determined as the maximum fold induction of the tested ligand (an embodiment of the invention) observed at any concentration relative to the maximum fold induction of GS™-E ligand (3,5-dimethyl-benzoic acid N-tert-butyl-N′-(2-ethyl-3-methoxy-benzoyl)-hydrazide) observed at any concentration.
# [2] = target: wild-type Choristoneura fumiferana EcR (D, E and F domains) (Choristoneura fumiferana, UniProt O77240); assay type: cell-based; settings: WT-CtEcR, 3T3 Cells; for RMFI (relative maximum fold induction): relative to GS-E ligand
# Description: as §1, §2, §3, §4
SMILES,"EC50 ([1]; rac, read-out: EC50) [nM]",RMFI (relative maximum fold induction) ([1]; rac),"EC50 ([2]; rac, read-out: EC50) [nM]",RMFI (relative maximum fold induction) ([2]; rac),EC50 ([1]; S) [nM],RMFI (relative maximum fold induction) ([1]; S),EC50 ([2]; S) [nM],RMFI (relative maximum fold induction) ([2]; S),also measured
"CCC[C@@H](N(NC(=O)c1cccs1)C(=O)c1cc(C)cc(C)c1)C(C)(C)C [Example 25, (R)-3,5-Dimethyl-benzoic acid N-(1-tert-butyl-butyl)-N′-(thiophene-2-carbonyl)-hydrazide]",–,–,–,–,–,–,–,–,EC50 ([1]; R): ~20 nM; RMFI (relative maximum fold induction) ([1]; R): 0.72; EC50 ([2]; R): 432 nM; RMFI (relative maximum fold induction) ([2]; R): 0.42
CCCC(N(NC(=O)c1cccc(C)c1)C(=O)c1cc(C)cc(C)c1)C(C)(C)C (racemic) [rac-8],16.2,0.86,193,0.88,–,–,–,–,–
"CCC[C@H](N(NC(=O)c1cccc(C)c1)C(=O)c1cc(C)cc(C)c1)C(C)(C)C [Example 37, (S)-3,5-Dimethyl-benzoic acid N-(1-tert-butyl-butyl)-N′-(3-methyl-benzoyl)-hydrazide]",–,–,–,–,292,0.47,~3300,0.22,–
"CCC[C@H](N(NC(=O)c1ccccc1F)C(=O)c1cc(C)cc(C)c1)C(C)(C)C [Example 34, (S)-3,5-Dimethyl-benzoic acid N-(1-tert-butyl-butyl)-N′-(2-fluoro-benzoyl)-hydrazide]",–,–,–,–,86,0.64,529,0.41,–
CCCC(N(NC(=O)c1ccc2c(c1C)OCCO2)C(=O)c1cc(C)cc(C)c1)C(C)(C)C (racemic) [rac-21],~0.1,0.85,1.32,0.86,–,–,–,–,–
"CCC[C@@H](N(NC(=O)c1ccccc1OC)C(=O)c1cc(C)cc(C)c1)C(C)(C)C [Example 4, (R)-3,5-Dimethyl-benzoic acid N-(1-tert-butyl-butyl)-N′-(2-meihoxy-benzoyl)-hydrazide]",–,–,–,–,–,–,–,–,EC50 ([1]; R): 99 nM; RMFI (relative maximum fold induction) ([1]; R): 0.52; EC50 ([2]; R): 993 nM; RMFI (relative maximum fold induction) ([2]; R): 0.38
CCCC(N(NC(=O)c1ccccc1Br)C(=O)c1cc(C)cc(C)c1)C(C)(C)C (racemic) [rac-7],~3,1.28,86,0.63,–,–,–,–,–
"CCC[C@@H](C1CCCCC1)N(NC(=O)c1ccccc1)C(=O)c1cc(C)cc(C)c1 [Example 57, (S)-3,5-Dimethyl-benzoic acid N′-benzoyl-N-(1-cyclohexyl-butyl)-hydrazide]",–,–,–,–,769,0.50,2750,0.32,–
CCCC(N(NC(=O)c1cccc(Cl)c1)C(=O)c1cc(C)cc(C)c1)C(C)(C)C (racemic) [rac-10],23.9,0.86,~100,0.50,–,–,–,–,–
CCCC(N(NC(=O)c1c(Cl)cccc1Cl)C(=O)c1cc(C)cc(C)c1)C(C)(C)C (racemic) [rac-3],12.2,0.97,100,–,–,–,–,–,–
"CCC[C@H](N(NC(=O)c1cccs1)C(=O)c1cc(C)cc(C)c1)C(C)(C)C [Example 43, (S)-3,5-Dimethyl-benzoic acid N-(1-tert-butyl-butyl)-N′-(thiophene-2-carbonyl)-hydrazide]",–,–,–,–,1060,0.52,~10000,0.07,–
CCCC(N(NC(=O)c1cccc(OC)c1C)C(=O)c1cc(C)cc(C)c1)C(C)(C)C (racemic) [rac-29],0.15,0.77,3.88,0.98,–,–,–,–,–
CCCC(N(NC(=O)c1ccc2ccccc2c1)C(=O)c1cc(C)cc(C)c1)C(C)(C)C (racemic) [rac-24],61,0.62,~500,0.44,–,–,–,–,–
CCC[C@H](N(NC(=O)c1ccc2ccccc2c1)C(=O)c1cc(C)cc(C)c1)C(C)(C)C [Example S-24],–,–,–,–,–,–,–,0.13,"EC50 ([2]; S, read-out: EC50): 5380 nM"
CCCC(N(NC(=O)c1cc(C)oc1C)C(=O)c1cc(C)cc(C)c1)C(C)(C)C (racemic) [rac-26],84,0.97,2140,0.76,–,–,–,–,–
"CCC[C@H](N(NC(=O)c1cc(OC)c(C)c(OC)c1)C(=O)c1cc(C)cc(C)c1)C(C)(C)C [Example 42, (S)-3,5-Dimethyl-benzoic acid N-(1-tert-butyl-butyl)-N′-(3,5-dimethoxy-4-methyl-benzoyl)-hydrazide]",–,–,–,–,~7000,0.08,> 10000,–,–
"CCC[C@@H](N(NC(=O)c1cccnc1Cl)C(=O)c1cc(C)cc(C)c1)C(C)(C)C [Example 27, (R)-3,5-Dimethyl-benzoic acid N-(1-tert-butyl-butyl)-N′-(2-chloro-pyridine-3-carbonyl)-hydrazide]",–,–,–,–,–,–,–,–,EC50 ([1]; R): 7 nM; RMFI (relative maximum fold induction) ([1]; R): 0.73; EC50 ([2]; R): 95.2 nM; RMFI (relative maximum fold induction) ([2]; R): 0.70
"C=CC[C@H](C1CCCCC1)N(NC(=O)c1cccc(OC)c1C)C(=O)c1cc(C)cc(C)c1 [Example 60, (R)-3,5-Dimethyl-benzoic acid N-(1-cyclohexyl-but-3-enyl)-N′-(3-methoxy-2-methyl-benzoyl)-hydrazide]",–,–,–,–,–,–,–,–,EC50 ([1]; R): 746 nM; RMFI (relative maximum fold induction) ([1]; R): 0.78; EC50 ([2]; R): ~2000 nM; RMFI (relative maximum fold induction) ([2]; R): 0.62
"C=CC[C@@H](N(NC(=O)OCc1ccccc1)C(=O)c1cc(C)cc(C)c1)C(C)(C)C [Example 1.5, (R)—N′-(1-tert-butyl-but-3-enyl)-N′-(3,5-dimethyl-benzoyl)-hydrazinecarboxylic acid benzyl ester]",–,–,–,–,–,–,–,–,EC50 ([1]; R): ~2000 nM; RMFI (relative maximum fold induction) ([1]; R): 0.36; EC50 ([2]; R): > 10000 nM; RMFI (relative maximum fold induction) ([2]; R): 0.01
"CCC[C@H](N(NC(=O)c1cc(C)oc1C)C(=O)c1cc(C)cc(C)c1)C(C)(C)C [Example 44, (S)-3,5-Dimethyl-benzoic acid N-(1-tert-butyl-butyl)-N′-(2,5-dimethyl-furan-3-carbonyl)-hydrazide]",–,–,–,–,~2000,0.49,7060,0.32,–
"CCC[C@H](N(NC(=O)c1ccc(CC)cc1)C(=O)c1cc(C)cc(C)c1)C(C)(C)C [Example 39, (S)-3,5-Dimethyl-benzoic acid N-(1-tert-butyl-butyl)-N′-(4-ethyl-benzoyl)-hydrazide]",–,–,–,–,~20,0.70,418,0.29,–
"CCC[C@H](N(NC(=O)c1ccccc1Cl)C(=O)c1cc(C)cc(C)c1)C(C)(C)C [Example 35, (S)-3,5-Dimethyl-benzoic acid N-(1-tert-butyl-butyl)-N′-(2-chloro-benzoyl)-hydrazide]",–,–,–,–,~20,0.77,~1000,0.44,–
"CCC[C@H](N(NC(=O)c1ccc(Cl)nc1)C(=O)c1cc(C)cc(C)c1)C(C)(C)C [Example 46, (S)-3,5-Dimethyl-benzoic acid N-(1-tert-butyl-butyl)-N′-(6-chloro-pyridine-3-carbonyl)-hydrazide]",–,–,–,–,3990,0.42,–,–,–
